Test results published in patent US9555018B2, “Synergistic combinations of organic acid useful for controlling microoganisms in industrial processes” (Hercules Incorporated, priority 2013, dated 2017).
Values after ≈ are worked out from the molar mass of the structure shown. Read-outs that look alike come from different tables or passages of the source.

Legend:
Lactobacillus plantarum = assay: Minimal Inhibitory Concentration (MIC), two-fold dilution series in 96 well microplate, antimicrobial used alone; type: cell-based; settings: for MIC: Lactiplantibacillus plantarum; for Propionic Acid MIC (QB) used alone: sodium propionate per text
Text: While there are various methods known to individuals skilled in the art for measuring levels of antimicrobial activity, in the following examples the endpoint used is known as the Minimal Inhibitory Concentration, or MIC. This is the lowest concentration of a substance or substances which can achieve complete inhibition of growth.
In order to determine the Minimal Inhibitory Concentration, a two-fold dilution series of the antimicrobial is constructed with the dilutions being made in growth media. The dilutions are made in a 96 well microplate such that each well has a final volume of 280 μl of media and antimicrobial. The first well has, for example, a concentration of 1000 μM antimicrobial, the second 500 μM, the third 250 μM, and so forth, with the 12th and final well in the row having no antimicrobial at all and serving as a positive growth control. After the dilution series is constructed the wells receive an inoculum of microbe suspended in growth media such that the final concentration of microbes in the well is ˜5×10^5 cfu/ml. In these examples the test microbe used is Lactobacillus plantarum. The cultures are incubated at 37° C. for 18-24 hours, and the wells scored as positive or negative for growth based on a visual examination for turbid wells, with turbidity being an indicator of growth.

Weisella confusa = settings: background statement; cited from earlier work
fermentation = settings: background statement; cited from earlier work

For `O=C([O-])c1ccccc1.[K+]` [Potassium Benzoate, potassium benzoate], the “Potassium benzoate MIC (QB) used alone” value (Lactobacillus plantarum; pH 5, Example 4, listed as Potassium benzoate) was 3125 ppm, the “Potassium benzoate MIC (QB) used alone” value (Lactobacillus plantarum; pH 5, Example 4, listed as potassium benzoate) was 3,125 ppm and the “Potassium benzoate MIC (QB) used alone” value (Lactobacillus plantarum; pH 6, Example 3) was 100000 ppm. The “Potassium benzoate MIC (QB) used alone” value (Lactobacillus plantarum; pH 6, Example 3, listed as potassium benzoate) was 100,000 ppm.

Work on `O=C(O)CC(O)(CC(=O)O)C(=O)O` [Citric Acid, citric acid] yielded an MIC (Lactobacillus plantarum; pH 5, Example 2, read-out: Citric Acid MIC (QA) used alone) of 25 mg/mL (≈ 130 mM), an MIC (Lactobacillus plantarum; pH 5, Example 4, read-out: Citric acid MIC (QA) used alone) of 25 mg/mL (≈ 130 mM) and an MIC (Lactobacillus plantarum; pH 6, Example 1, 37° C., 18-24 hours, read-out: Citric Acid MIC (QA) used alone) of 100 mg/mL (≈ 520 mM). For the same compound, the “Citric Acid MIC (QA) used alone” value (Lactobacillus plantarum; pH 5, Example 2) was 25000 ppm, the “Citric Acid MIC (QA) used alone” value (Lactobacillus plantarum; pH 5, Example 4) was 25000 ppm and the “Citric Acid MIC (QA) used alone” value (Lactobacillus plantarum; pH 6, Example 1, 37° C., 18-24 hours) was 100000 ppm. For the same compound, the “Citric Acid MIC (QA) used alone” value (Lactobacillus plantarum; pH 6, Example 3) was 100000 ppm and the “Citric Acid MIC (QA) used alone” value (Lactobacillus plantarum; pH 6, Example 3, listed as citric acid) was 100,000 ppm.

For `CCC(=O)[O-].[Na+]` [Sodium Propionate, sodium propionate], the “Sodium Propionate MIC (QB) used alone” value (Lactobacillus plantarum; pH 5, Example 2) was 100000 ppm, the “Sodium Propionate MIC (QB) used alone” value (Lactobacillus plantarum; pH 5, Example 2, listed as sodium propionate) was 100,000 ppm and the “Propionic Acid MIC (QB) used alone” value (Lactobacillus plantarum; pH 6, Example 1) was 100,000 ppm. For the same compound, the “Propionic Acid MIC (QB) used alone” value (Lactobacillus plantarum; pH 6, Example 1, listed as Propionic Acid) was 100000 ppm.

In the case of Virginiamycin, the “concentration required to inhibit growth of Weisella confusa” value (Weisella confusa) is given as “over 25 mg/L” and the “concentration that will suppress fermentation” value (fermentation) is given as “over 2 mg/L”.
